From PMC10609904 (Pharmaceuticals, 2023) come the findings set out here.

Like-named read-outs stand apart in the source and are kept apart here.

For assay [1], the target named is T1, acetylcholinesterase (AChE) (Electrophorus electricus, UniProt O42275).
T1 construct: purchased Sigma Aldrich
Kind of assay: biochemical. Here is the method: The anti-Alzheimer impact was assessed in vitro utilizing the key enzyme acetylcholinesterase inhibition assay, as described in an earlier study. In detail, 120 μL of phosphate buffer, 60 μL of tested sample, and 60 μL of enzymatic solution (0.5 mM) were mixed and incubated for fifteen minutes at 25 °C in a 96-well plate. This was followed by the addition of 30 μL of 5,5′-dithiobis-2-nitrobenzoic acid (0.003 M) and 40 μL of acetylthiocholine iodide (0.002 M). The reaction mixture was kept in an incubator at 25 °C for ten minutes. The absorbance of the solution was measured at 415 nm. Berberine chloride was used as a standard inhibitor of the enzyme.
(§1) All chemical assays were conducted in triplicate. […] The IC50 value (half-maximal inhibitory concentration of samples) was determined via a standard equation constructed by the inhibitory activity (%) and the respective concentration of the tested sample.

A short description of assay [2]: DPPH radical scavenging assay. How it is done: (§2) The DPPH radical scavenging assay and the ABTS assay were used to assess anti-oxidant activity, as previously described in detail by Nguyen et al.. In a 96-well plate, 100 μL of samples (at various concentrations) or distilled water (blank sample) were combined with 25 μL of 0.75 mM DPPH solution (dissolved in methanol). After that, the plates were kept in complete darkness for 30 min. Subsequently, the absorbance was determined at a wavelength of 517 nm. For the ABTS radical-scavenging activity assay, test samples (at various concentrations) were mixed with pre-diluted ABTS solution (reaching an optical density of 0.7). The reaction was allowed to occur for 10 min at room temperature. The absorbance was measured at 734 nm. Ascorbic acid was used as positive control.
as §1
(In general: The DPPH test is a chemical assay of radical scavenging.)

Assay [3] can be described thus: ABTS radical-scavenging activity assay. Here is the method: as §2, §1

T1 sequence (O42275 24-633): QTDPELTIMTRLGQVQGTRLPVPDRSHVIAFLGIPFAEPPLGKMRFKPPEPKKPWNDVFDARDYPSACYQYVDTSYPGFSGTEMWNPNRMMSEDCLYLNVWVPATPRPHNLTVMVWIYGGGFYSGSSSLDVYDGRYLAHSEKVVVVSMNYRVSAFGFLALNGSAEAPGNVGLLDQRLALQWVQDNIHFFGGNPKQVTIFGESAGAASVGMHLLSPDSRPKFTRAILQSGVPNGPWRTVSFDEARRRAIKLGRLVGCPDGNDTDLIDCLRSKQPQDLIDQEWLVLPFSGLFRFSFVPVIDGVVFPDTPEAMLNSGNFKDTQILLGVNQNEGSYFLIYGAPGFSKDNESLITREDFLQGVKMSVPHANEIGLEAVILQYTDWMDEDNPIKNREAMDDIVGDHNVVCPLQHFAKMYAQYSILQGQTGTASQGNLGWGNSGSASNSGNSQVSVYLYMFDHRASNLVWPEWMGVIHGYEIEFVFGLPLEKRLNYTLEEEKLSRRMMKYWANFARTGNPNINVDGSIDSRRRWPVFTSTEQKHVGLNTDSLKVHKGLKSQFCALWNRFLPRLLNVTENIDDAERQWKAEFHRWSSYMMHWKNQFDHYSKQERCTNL

In the case of `COc1cc(O)c2c(c1)oc(=O)c1c3cc(O)c(O)cc3oc21` [compound 1, Wedelolactone], the IC50 in assay [1] (read-out: AChE IC50 (converted)) is 195 µM.

For the compound `O=C(O)c1ccccc1O` [compound 8, Salicylic acid], in assay [1], the midpoint of inhibition, the IC50, lay at 405 µM.

The compound `COc1ccc2cc3[n+](cc2c1OC)CCc1cc2c(cc1-3)OCO2` [compound 37, Berberine chloride] gave an IC50 in assay [1] of 895 µM.

With `O=C1O[C@H]([C@@H](O)CO)C(O)=C1O` [Vitamin C, Ascorbic acid], in assay [2], the “DPPH IC50” value was 38.4 ± 0.5 µg/mL. The “ABTS IC50” value in assay [3] was 23.0 ± 0.4 µg/mL.

The term IC50 denotes the concentration that inhibits the measured activity by half.
